According to ChEMBL document CHEMBL1149717, “Three New Eudesmane Sesquiterpenes from Pluchea arguta” (J Nat Prod, 1992):
The source made the active and inactive calls.

Columns and labels:
Assay type in all cases: functional, organism-based
Proteus vulgaris = test: Antibacterial activity against Proteus vulgaris
Lactococcus lactis = test: Antibacterial activity against Streptococcus lactis
Klebsiella pneumoniae = test: Antibacterial activity against Klebsiella ozaenae; conditions: subsp. ozaenae

Measured: Activity

CC(=O)O[C@]1(C)[C@@H]2C=C(C(C)(C)O)C(=O)C[C@@]2(C)CC[C@H]1OC(=O)C(C)(O)C(C)Cl (stereo partly drawn)
active: all assays above
